Experimental data published in the kinase profiling compilation of Christmann-Franck et al. (2016).

What was measured:
Assay in all cases: radiometric filter-binding kinase assay
[1] = biological target: BRSK2 (human) (UniProt Q8IWQ3)
[2] = biological target: NUAK1 (human) (UniProt O60285)
[3] = biological target: MAP3K1 (human) (UniProt Q13233)
[4] = biological target: HIPK1 (human) (UniProt Q86Z02)
[5] = biological target: PRKCZ (human) (UniProt Q05513)
[6] = biological target: MAPK1 (human) (UniProt P28482)
[7] = biological target: MAP3K5 (human) (UniProt Q99683)
[8] = biological target: HIPK3 (human) (UniProt Q9H422)
[9] = biological target: MAPK3 (human) (UniProt P27361)
[10] = biological target: CDK2 CCNA2 (human) (UniProt P20248+P24941)
[11] = biological target: DAPK1 (human) (UniProt P53355)
[12] = biological target: EEF2K (human) (UniProt O00418)
[13] = biological target: STK3 (human) (UniProt Q13188)
[14] = biological target: MST4 (human) (UniProt Q9P289)
[15] = biological target: RPS6KA5 KD1 KD2 (human) (UniProt O75582)
[16] = biological target: JAK2 JH1 JH2 (human) (UniProt O60674)
[17] = biological target: AURKA (human) (UniProt O14965)
[18] = biological target: EPHB4 (human) (UniProt P54760)
[19] = biological target: ERBB4 (human) (UniProt Q15303)
[20] = biological target: RPS6KA3 KD1 KD2 (human) (UniProt P51812)
[21] = biological target: GCK (human) (UniProt Q12851)
[22] = biological target: PAK6 (human) (UniProt Q9NQU5)
[23] = biological target: FLT1 (human) (UniProt P17948)
[24] = biological target: MARK3 (human) (UniProt P27448)
[25] = biological target: RPS6KA1 KD1 KD2 (human) (UniProt Q15418)
[26] = biological target: TAOK1 (human) (UniProt Q7L7X3)
[27] = biological target: CHEK2 (human) (UniProt O96017)
[28] = biological target: NTRK1 (human) (UniProt P04629)
[29] = biological target: CHEK1 (human) (UniProt O14757)
[30] = system: SGK1 (human), O00141 [S422D]
[31] = biological target: PLK1 (human) (UniProt P53350)
[32] = biological target: PRKCA (human) (UniProt P17252)
[33] = biological target: MARK4 (human) (UniProt Q96L34)

Sequence of ERBB4 (human) (Q15303 whole entry, looked up): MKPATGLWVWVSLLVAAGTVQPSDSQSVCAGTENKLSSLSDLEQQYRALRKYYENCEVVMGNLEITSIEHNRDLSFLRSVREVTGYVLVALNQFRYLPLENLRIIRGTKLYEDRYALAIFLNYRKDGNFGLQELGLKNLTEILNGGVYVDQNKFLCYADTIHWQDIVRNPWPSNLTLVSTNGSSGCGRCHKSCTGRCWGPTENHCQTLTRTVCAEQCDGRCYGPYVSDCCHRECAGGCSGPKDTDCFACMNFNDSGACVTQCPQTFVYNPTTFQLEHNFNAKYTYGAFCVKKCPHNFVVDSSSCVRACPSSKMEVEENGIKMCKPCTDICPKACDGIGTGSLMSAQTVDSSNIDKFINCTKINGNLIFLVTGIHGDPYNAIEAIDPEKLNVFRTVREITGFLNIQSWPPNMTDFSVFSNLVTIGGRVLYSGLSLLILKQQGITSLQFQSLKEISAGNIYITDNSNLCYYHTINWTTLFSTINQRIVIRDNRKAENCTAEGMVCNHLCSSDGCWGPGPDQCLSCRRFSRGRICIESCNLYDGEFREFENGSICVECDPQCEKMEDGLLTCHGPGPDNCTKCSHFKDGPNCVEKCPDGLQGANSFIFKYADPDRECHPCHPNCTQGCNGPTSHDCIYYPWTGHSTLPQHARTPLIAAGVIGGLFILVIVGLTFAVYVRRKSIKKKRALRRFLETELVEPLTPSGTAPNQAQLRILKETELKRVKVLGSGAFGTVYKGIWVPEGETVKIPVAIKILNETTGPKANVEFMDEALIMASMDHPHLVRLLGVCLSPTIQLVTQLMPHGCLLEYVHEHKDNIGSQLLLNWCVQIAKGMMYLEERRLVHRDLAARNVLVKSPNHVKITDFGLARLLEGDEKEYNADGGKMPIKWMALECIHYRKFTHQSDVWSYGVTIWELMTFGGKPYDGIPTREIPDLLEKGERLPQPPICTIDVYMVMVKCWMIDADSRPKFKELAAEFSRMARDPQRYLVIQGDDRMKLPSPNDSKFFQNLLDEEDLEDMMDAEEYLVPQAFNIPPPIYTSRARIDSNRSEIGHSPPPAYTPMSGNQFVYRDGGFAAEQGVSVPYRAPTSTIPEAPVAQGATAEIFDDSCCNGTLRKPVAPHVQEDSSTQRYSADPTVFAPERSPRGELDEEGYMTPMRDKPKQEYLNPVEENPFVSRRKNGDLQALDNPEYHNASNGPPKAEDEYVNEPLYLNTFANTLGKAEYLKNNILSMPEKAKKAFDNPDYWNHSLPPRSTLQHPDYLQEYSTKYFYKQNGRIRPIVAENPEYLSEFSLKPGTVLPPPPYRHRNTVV
Sequence of AURKA (human) (O14965 whole entry, looked up): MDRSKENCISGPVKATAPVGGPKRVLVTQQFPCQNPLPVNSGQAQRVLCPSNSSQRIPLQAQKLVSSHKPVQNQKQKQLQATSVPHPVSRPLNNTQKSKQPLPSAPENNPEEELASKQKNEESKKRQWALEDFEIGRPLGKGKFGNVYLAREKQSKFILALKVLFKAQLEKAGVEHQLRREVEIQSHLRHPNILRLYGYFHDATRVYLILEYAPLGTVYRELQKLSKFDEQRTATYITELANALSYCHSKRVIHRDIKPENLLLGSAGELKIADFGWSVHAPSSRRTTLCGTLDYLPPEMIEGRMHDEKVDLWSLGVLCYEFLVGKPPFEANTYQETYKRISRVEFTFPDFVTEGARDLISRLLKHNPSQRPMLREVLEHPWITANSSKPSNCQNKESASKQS
Sequence of MAP3K1 (human) (Q13233 whole entry, looked up): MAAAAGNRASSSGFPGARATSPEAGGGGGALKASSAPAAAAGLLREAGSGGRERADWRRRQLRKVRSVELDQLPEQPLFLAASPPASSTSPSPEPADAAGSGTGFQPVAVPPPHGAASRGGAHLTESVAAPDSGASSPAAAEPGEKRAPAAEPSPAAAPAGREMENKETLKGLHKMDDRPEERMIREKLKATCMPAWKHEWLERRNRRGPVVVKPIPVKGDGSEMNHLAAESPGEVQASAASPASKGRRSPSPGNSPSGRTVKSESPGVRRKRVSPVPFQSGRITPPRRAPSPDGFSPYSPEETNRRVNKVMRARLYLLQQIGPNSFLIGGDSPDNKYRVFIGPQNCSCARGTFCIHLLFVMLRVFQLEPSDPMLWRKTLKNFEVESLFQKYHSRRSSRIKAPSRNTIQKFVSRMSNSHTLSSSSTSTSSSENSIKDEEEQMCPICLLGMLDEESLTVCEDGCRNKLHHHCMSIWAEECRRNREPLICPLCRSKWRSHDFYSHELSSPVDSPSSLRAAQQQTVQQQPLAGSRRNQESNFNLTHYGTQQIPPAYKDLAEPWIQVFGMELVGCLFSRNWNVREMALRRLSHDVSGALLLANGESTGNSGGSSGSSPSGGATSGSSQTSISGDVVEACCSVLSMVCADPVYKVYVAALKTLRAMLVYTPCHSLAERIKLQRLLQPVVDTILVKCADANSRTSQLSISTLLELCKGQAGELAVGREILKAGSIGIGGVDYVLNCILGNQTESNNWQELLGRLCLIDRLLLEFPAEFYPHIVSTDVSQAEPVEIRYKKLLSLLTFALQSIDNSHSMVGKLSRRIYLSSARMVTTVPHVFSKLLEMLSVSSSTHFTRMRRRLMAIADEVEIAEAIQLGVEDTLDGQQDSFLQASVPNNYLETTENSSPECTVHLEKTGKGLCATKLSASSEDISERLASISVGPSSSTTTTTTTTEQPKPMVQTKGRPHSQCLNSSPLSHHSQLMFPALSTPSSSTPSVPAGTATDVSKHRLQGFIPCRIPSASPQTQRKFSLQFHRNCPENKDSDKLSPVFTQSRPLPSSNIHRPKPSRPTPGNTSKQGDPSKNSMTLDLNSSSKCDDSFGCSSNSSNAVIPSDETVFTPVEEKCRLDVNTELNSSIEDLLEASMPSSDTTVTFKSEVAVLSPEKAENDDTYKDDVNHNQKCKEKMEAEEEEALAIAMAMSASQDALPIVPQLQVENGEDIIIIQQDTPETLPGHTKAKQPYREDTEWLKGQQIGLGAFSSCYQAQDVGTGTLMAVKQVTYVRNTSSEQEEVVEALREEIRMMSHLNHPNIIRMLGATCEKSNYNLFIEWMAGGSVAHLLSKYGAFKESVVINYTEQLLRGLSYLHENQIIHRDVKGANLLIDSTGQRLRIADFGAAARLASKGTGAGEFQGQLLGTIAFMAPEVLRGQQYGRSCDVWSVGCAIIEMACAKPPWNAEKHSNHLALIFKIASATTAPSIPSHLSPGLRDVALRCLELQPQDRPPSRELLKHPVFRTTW
Sequence of PAK6 (human) (Q9NQU5 whole entry, looked up): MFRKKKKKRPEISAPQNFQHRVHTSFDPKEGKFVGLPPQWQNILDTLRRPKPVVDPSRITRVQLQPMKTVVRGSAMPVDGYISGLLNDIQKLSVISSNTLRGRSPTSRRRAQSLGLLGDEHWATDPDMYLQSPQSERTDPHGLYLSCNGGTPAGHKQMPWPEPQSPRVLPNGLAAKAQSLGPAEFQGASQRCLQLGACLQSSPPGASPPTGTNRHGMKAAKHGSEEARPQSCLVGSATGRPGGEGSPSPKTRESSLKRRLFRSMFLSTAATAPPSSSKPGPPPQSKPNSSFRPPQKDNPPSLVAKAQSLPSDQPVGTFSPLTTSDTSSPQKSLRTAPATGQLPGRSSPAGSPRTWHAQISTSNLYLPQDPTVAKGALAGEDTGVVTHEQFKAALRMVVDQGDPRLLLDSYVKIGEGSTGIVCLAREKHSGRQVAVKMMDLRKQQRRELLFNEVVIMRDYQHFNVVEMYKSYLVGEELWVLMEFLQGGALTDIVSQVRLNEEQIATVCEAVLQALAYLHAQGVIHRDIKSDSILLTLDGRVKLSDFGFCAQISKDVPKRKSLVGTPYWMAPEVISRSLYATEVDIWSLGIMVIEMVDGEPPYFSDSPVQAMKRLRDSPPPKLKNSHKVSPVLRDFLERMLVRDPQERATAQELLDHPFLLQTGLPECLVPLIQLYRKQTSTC
Sequence of RPS6KA5 KD1 KD2 (human) (O75582 whole entry, looked up): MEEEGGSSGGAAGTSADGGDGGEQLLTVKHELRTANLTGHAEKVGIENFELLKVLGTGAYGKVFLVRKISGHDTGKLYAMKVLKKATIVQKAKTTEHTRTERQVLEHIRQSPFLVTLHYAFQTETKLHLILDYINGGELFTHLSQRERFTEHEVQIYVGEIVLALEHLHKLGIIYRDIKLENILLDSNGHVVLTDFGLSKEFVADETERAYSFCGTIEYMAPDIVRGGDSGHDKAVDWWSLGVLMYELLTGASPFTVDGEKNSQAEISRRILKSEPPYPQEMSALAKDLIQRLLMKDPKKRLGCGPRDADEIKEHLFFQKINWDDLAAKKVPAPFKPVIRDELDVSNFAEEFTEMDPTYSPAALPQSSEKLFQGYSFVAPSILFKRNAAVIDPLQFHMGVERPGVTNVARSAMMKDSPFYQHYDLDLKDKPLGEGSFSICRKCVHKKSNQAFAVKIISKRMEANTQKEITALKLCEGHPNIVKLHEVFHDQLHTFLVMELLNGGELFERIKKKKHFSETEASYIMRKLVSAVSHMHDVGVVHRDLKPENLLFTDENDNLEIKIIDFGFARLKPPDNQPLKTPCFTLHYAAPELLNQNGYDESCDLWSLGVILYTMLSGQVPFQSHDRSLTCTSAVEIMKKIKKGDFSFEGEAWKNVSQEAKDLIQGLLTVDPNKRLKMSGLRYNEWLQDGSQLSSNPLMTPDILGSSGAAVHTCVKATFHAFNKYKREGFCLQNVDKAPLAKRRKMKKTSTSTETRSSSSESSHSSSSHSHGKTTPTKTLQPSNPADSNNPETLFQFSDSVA
Sequence of MAPK1 (human) (P28482 whole entry, looked up): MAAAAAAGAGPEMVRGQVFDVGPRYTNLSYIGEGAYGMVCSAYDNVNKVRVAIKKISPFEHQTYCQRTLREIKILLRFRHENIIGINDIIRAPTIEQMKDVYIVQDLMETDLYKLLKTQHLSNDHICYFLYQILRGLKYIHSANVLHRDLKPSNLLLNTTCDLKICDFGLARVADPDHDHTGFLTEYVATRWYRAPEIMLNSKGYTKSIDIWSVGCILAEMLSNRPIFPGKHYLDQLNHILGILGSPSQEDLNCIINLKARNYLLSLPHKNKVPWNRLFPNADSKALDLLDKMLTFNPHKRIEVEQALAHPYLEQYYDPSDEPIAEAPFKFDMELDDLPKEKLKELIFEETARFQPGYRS

C=CC(=O)N1CCC[C@@H](n2nc(-c3ccc(Oc4ccccc4)cc3)c3c(N)ncnc32)C1
residual activity ([1]; compound 0.1 µM): 100%
residual activity ([1]; compound 1.0 µM): 91%
residual activity ([1]; compound 10.0 µM): 61%
residual activity ([2]; compound 0.1 µM): 99%
residual activity ([2]; compound 1.0 µM): 82%
residual activity ([2]; compound 10.0 µM): 26%
residual activity ([3]; compound 0.1 µM): 106%
residual activity ([3]; compound 1.0 µM): 103%
residual activity ([3]; compound 10.0 µM): 56%
residual activity ([4]; compound 0.1 µM): 75%
residual activity ([4]; compound 1.0 µM): 87%
residual activity ([4]; compound 10.0 µM): 75%
residual activity ([5]; compound 0.1 µM): 90%
residual activity ([5]; compound 1.0 µM): 98%
residual activity ([5]; compound 10.0 µM): 81%
residual activity ([6]; compound 0.1 µM): 94%
residual activity ([6]; compound 1.0 µM): 99%
residual activity ([6]; compound 10.0 µM): 90%
residual activity ([7]; compound 0.1 µM): 103%
residual activity ([7]; compound 1.0 µM): 128%
residual activity ([7]; compound 10.0 µM): 111%
residual activity ([8]; compound 0.1 µM): 100%
residual activity ([8]; compound 1.0 µM): 123%
residual activity ([8]; compound 10.0 µM): 110%
residual activity ([9]; compound 0.1 µM): 83%
residual activity ([9]; compound 10.0 µM): 84%
residual activity ([10]; compound 0.1 µM): 89%
residual activity ([10]; compound 1.0 µM): 99%
residual activity ([10]; compound 10.0 µM): 84%
residual activity ([11]; compound 0.1 µM): 95%
residual activity ([11]; compound 1.0 µM): 95%
residual activity ([11]; compound 10.0 µM): 84%
residual activity ([12]; compound 0.1 µM): 88%
residual activity ([12]; compound 10.0 µM): 90%
residual activity ([13]; compound 0.1 µM): 88%
residual activity ([13]; compound 1.0 µM): 65%
residual activity ([13]; compound 10.0 µM): 41%
residual activity ([14]; compound 0.1 µM): 100%
residual activity ([14]; compound 1.0 µM): 73%
residual activity ([14]; compound 10.0 µM): 27%
residual activity ([15]; compound 0.1 µM): 94%
residual activity ([15]; compound 1.0 µM): 101%
residual activity ([15]; compound 10.0 µM): 55%
residual activity ([16]; compound 0.1 µM): 90%
residual activity ([16]; compound 1.0 µM): 103%
residual activity ([16]; compound 10.0 µM): 83%
residual activity ([17]; compound 0.1 µM): 92%
residual activity ([17]; compound 1.0 µM): 57%
residual activity ([17]; compound 10.0 µM): 10%
residual activity ([18]; compound 0.1 µM): 83%
residual activity ([18]; compound 1.0 µM): 74%
residual activity ([18]; compound 10.0 µM): 39%
residual activity ([19]; compound 0.1 µM): 7%
residual activity ([19]; compound 1.0 µM): 8%
residual activity ([19]; compound 10.0 µM): 5%
residual activity ([20]; compound 0.1 µM): 103%
residual activity ([20]; compound 1.0 µM): 106%
residual activity ([20]; compound 10.0 µM): 68%
residual activity ([21]; compound 0.1 µM): 98%
residual activity ([21]; compound 1.0 µM): 77%
residual activity ([21]; compound 10.0 µM): 38%
residual activity ([22]; compound 0.1 µM): 95%
residual activity ([22]; compound 1.0 µM): 97%
residual activity ([22]; compound 10.0 µM): 82%
residual activity ([23]; compound 0.1 µM): 40%
residual activity ([23]; compound 1.0 µM): 7%
residual activity ([23]; compound 10.0 µM): 2%
residual activity ([24]; compound 0.1 µM): 98%
residual activity ([24]; compound 1.0 µM): 94%
residual activity ([24]; compound 10.0 µM): 76%
residual activity ([25]; compound 0.1 µM): 94%
residual activity ([25]; compound 1.0 µM): 101%
residual activity ([25]; compound 10.0 µM): 46%
residual activity ([26]; compound 0.1 µM): 113%
residual activity ([26]; compound 1.0 µM): 119%
residual activity ([27]; compound 0.1 µM): 92%
residual activity ([27]; compound 1.0 µM): 77%
residual activity ([27]; compound 10.0 µM): 35%
residual activity ([28]; compound 0.1 µM): 64%
residual activity ([28]; compound 1.0 µM): 46%
residual activity ([28]; compound 10.0 µM): 13%
residual activity ([29]; compound 0.1 µM): 76%
residual activity ([29]; compound 1.0 µM): 93%
residual activity ([29]; compound 10.0 µM): 77%
residual activity ([30]; compound 0.1 µM): 95%
residual activity ([30]; compound 1.0 µM): 107%
residual activity ([30]; compound 10.0 µM): 84%
residual activity ([31]; compound 0.1 µM): 88%
residual activity ([31]; compound 1.0 µM): 95%
residual activity ([31]; compound 10.0 µM): 76%
residual activity ([32]; compound 0.1 µM): 99%
residual activity ([32]; compound 10.0 µM): 100%
residual activity ([33]; compound 0.1 µM): 111%
residual activity ([33]; compound 1.0 µM): 114%
residual activity ([33]; compound 10.0 µM): 80%
